We go through 2 compounds from PMC7551256, “Biochemical Characterization of a Novel Endo-1,3-β-Glucanase from the Scallop Chlamys farreri” (Marine Drugs, 2020).

In assay [1] the target is T1, Lcf (Azumapecten farreri, UniProt A0A140H631).
T1 construct: full length without signal peptide; secreted from Brevibacillus (pNCMO2, BamHI/XhoI); about 37 kDa; primers encode AGFRDDF at N-terminus and DYIEMIPH-stop at C-terminus
T1 sequence (A0A140H631 16-340): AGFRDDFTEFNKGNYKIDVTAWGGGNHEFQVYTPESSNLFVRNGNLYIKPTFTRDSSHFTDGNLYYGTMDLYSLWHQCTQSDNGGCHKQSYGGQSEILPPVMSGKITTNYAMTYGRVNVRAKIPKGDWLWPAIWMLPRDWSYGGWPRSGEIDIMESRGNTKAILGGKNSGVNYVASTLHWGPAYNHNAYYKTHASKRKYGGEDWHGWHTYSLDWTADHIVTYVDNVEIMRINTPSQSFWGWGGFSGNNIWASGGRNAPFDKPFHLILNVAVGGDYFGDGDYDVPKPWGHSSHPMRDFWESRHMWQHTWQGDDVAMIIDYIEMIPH
Kind of assay: ESI-MS of transglycosylation products. The assay is classed as biochemical. The settings on record: glycosyl acceptor 2 mg/mL; donor laminarihexaose 2 mg/mL; 25 mM sodium acetate pH 5.6, 37 °C, 5 min.

Assay [2] addresses T1, Lcf. Put plainly: TLC of hydrolysis products; ESI-MS. It is filed as biochemical. As to conditions: 0.1% (w/w) substrate, 50 mM sodium acetate pH 5.6, 37 °C; hydrolysed, also glycosyl donor.

Take `OC[C@@H](O)[C@@H](O)[C@H](O)[C@@H](O)CO` [D-sorbitol]: the “ESI-MS of transglycosylation products” value on Lcf [1] is “three transglycosylation products were observed in the presence of D-sorbitol”.
As to `OC[C@H]1O[C@@H](O[C@@H]2[C@@H](O)[C@H](O[C@@H]3[C@@H](O)[C@H](O[C@@H]4[C@@H](O)[C@H](O[C@@H]5[C@@H](O)[C@H](O[C@H]6[C@H](O)[C@@H](CO)OC(O)[C@@H]6O)O[C@H](CO)[C@H]5O)O[C@H](CO)[C@H]4O)O[C@H](CO)[C@H]3O)O[C@H](CO)[C@H]2O)[C@H](O)[C@@H](O)[C@@H]1O` (some centres unmarked) [laminarihexaose], the “TLC of hydrolysis products; ESI-MS” value on Lcf [2] is given as “Lcf showed a more efficient cleavage rate toward laminarinexaose”.
